Results as given in patent publication US20110218215A1, “Compositions and Methods for Treating Social Anxiety” (priority 2010, published 2011).

Test system: performance anxiety in the context of public speaking
Assay: Open clinical trial: oral doses taken before public speaking, subject self-reports
Format: in vivo, human
Details: Subject 2, 40 mg propranolol HCl alone
Text: Subjects were selected based on their history of experiencing performance anxiety in the context of public speaking. Subjects received oral doses of the present composition, as described below, at various times prior to speaking engagements. The parameters assessed included but were not limited to the following: tremor of voice and hands, urinary and/or fecal urgency, tachycardia, anxiety, and side effects (e.g., dry mouth).

`CC(C)NCC(O)COc1cccc2ccccc12.Cl` (racemic) [propranolol HCl, (RS)-1-(isopropylamino)-3-(1-naphthyloxy)propan-2-ol] was tested, and the fecal urgency (ninety minutes prior) was “did report fecal urgency”, the quality of presentation (ninety minutes prior) was “less colorful and confident presentation” and the voice tremor (ninety minutes prior) was “no tachycardia or voice tremor”. The tachycardia (ninety minutes prior to public speaking) was “no tachycardia”.
